Laboratory results: patent US20150080475A1, “Memantine Protects Inflammation-Related Degeneration of Dopamine Neurons Through Inhibition of Over-Activated Microglia and Release of Neurotrophic Factors From Astroglia” (priority 2009, published 2015)

Experiments:
[1] = system: TH-ir neurons; assay: Cell count of TH-ir neurons in rat neuron-glia cultures; type: cell-based
Procedure: For visual counting of TH-ir neurons after Immunostaining, nine representative areas per well of the 24-well plate were counted under the microscope at 100¥ magnification. To measure the average TH-ir dendrite, 50 TH-ir representative neurons in each well were selected and three wells for each treatment condition were selected. In addition, the average dendrite length of TH-ir neurons was measured (Liu Y X, Qin L, Wilson B C, An L, Hong J S and Liu B (2002b) Inhibition by naloxone stereoisomers of -amyloid peptide (1-42)-induced superoxide production in microglia and degeneration of cortical and mesencephalic neurons. J Pharmacol Exp Ther 302: 1212-1219.).
Rat mesencephalic neuron-glia cultures were pretreated for 30 min with vehicle or 1, 3, 10 μM MMT before adding LPS (2.5 to 5 ng/ml) to the cultures. One week later, the neurotoxic effect of LPS on DA neurons were assessed by both [H^3] DA uptake, which measures the functional capacity of high affinity uptake of DA cells and cell count of tyrosine hydroxylase-positive (TH-ir) cells. [H^3] […] MMT alone increased the uptake capacity by 30-80% in 3 and 10 μM of MMT, respectively. […] The neurotrophic effect of MMT is astrocyte-dependent. Astrocytes, not micrglia, contribute to the neurotrophic effect of MMT at 1-10 μM MMT (FIG. 10).
In addition to the pre-treatment experiments, similar studies using post-treatment designs were conducted to determine the efficacy of MMT. In these experiments, neuron-glia cultures were either treated with MMT (10 μM) and LPS (2.5 ng/ml) at the same time, or MMT was added 30, 60, 120 or 180 min after the addition of LPS. One week later, DA uptake of the culture was assayed.
DA neurons were recognized with the polyclonal antibody against tyrosine hydroxylase (TH) and microglia was detected with the OX-42 antibody against CR3 receptor. […] To quantify cell numbers, nine representative areas per well in the 24-well plate were counted under the microscope at 100× magnification by two individuals. […]

[2] = system: DA neurons; assay: [3H] DA uptake, LPS-induced neurotoxicity in rat mesencephalic neuron-glia cultures; type: cell-based
Procedure: Rat and mouse ventral mesencephalic neuron-glia cultures were prepared using a described protocol (Gao H M, Hong J S, Zhang W Q, Liu B (2002) Distinct Role for Microglia in Rotenone-Induced Degeneration of Dopaminergic Neurons. J Neurosci 22(3):782-790). Briefly, midbrain tissues were dissected from day 14 Fisher 344 rat embryos or day 14 mouse embryos (PHOX^+/+ or PHOX^−/−). Cells were dissociated via gentle mechanical trituration in minimum essential medium (MEM) and immediately seeded (5×10^5/well) in poly D-lysine (20 μg/mL) precoated 24-well plates. Cells were seeded in maintenance media and treated with the treatment media described previously (Gao H M, Hong J S, Zhang W Q, Liu B (2002) Distinct Role for Microglia in Rotenone-Induced Degeneration of Dopaminergic Neurons. J Neurosci 22(3):782-790). Three days after seeding, the cells were replenished with 500 μL of fresh maintenance media. Cultures were exposed 7 days after seeding. At the time of treatment, the composition of the cultures was approximately 48% astrocytes, 11% microglia, 40% neurons, and 1 to 1.5% TH-immunoreactive (ir) neurons.
Cells were incubated in Krebs-Ringer buffer (16 mM NaH2PO4, 1.2 mM MgSO4, 1.3 mM EDTA, […], for 21 min at 37° C. with 1 μM [^3H] DA. Nonspecific uptake was blocked for DA with 10 μM mazindole. After incubation, cells were washed three times with 1 mL/well of ice-cold Krebs-Ringer buffer. Cells were then lysed with 0.5 mL/well of 1 N NaOH and mixed with 15 mL of scintillation fluid. Radioactivity was measured on a scintillation counter, where specific [^3H] DA uptake was calculated by subtracting the mazindole.
Rat mesencephalic neuron-glia cultures were pretreated for 30 min with vehicle or 1, 3, 10 μM MMT before adding LPS (2.5 to 5 ng/ml) to the cultures. One week later, the neurotoxic effect of LPS on DA neurons were assessed by both [H^3] DA uptake, which measures the functional capacity of high affinity uptake of DA cells and cell count of tyrosine hydroxylase-positive (TH-ir) cells. [H^3] […]

[3] = system: DA neurons; assay: Neurotrophic effect in neuron-enriched, microglia-added and microglia-depleted cultures (DA uptake); type: cell-based, rat
Procedure: Astrocytes, not micrglia, contribute to the neurotrophic effect of MMT. Neuron-enriched cultures were treated with vehicle and 1-10 μM MMT (FIG. 10A); 10% (5×10^4/well) of microglia were added back to neuron-enriched cultures and treated with 10 μM MMT (FIG. 10B); Depleted microglia cultures were treated with 10 μM MMT (FIG. 10C). ┌^3H┘ DA uptake was assayed 7 days after treatment. Values are mean±SEM of three independent experiments. *p<0.05, compared with corresponding vehicle-treated control cultures.
In addition to neuroprotection against LPS-induced neurotoxicity, MMT is found to have high potency of neurotrophic effect on DA neurons in rat primary mesencephalic neuron-glia cultures.
Mesencephalic neuron-glia cultures were seeded (5×10^5/well) in 24 well plates precoated with poly D-lysine. Thirty-six hours postseeding, 5-10 μM cytosine β-D-arabinofuranoside was added to the culture. After 2 days, the cytosine β-D-arabinofuranoside was removed and replaced with fresh media. Neuron-enriched cultures are 98% pure, as indicated by ICC staining with OX-42 and GFAP antibodies. Neuron-enriched cultures were treated 7 days post-seeding. For microglia add-back cultures, the microglia were plated on top of the neuron-enriched culture at 6 days postseeding, resulting in the addition of either 10% (500 μL of 1×10^5) or 20% (500 μL of 2×10^5) microglia. Cells were treated 7 days after the initial seeding of the neuron-enriched cultures.

[4] = system: HAPI; assay: MTT cell viability of HAPI cells with LPS; type: cell-based; conditions: MMT 10 uM, LPS 100 ng/ml, 48 hrs
Procedure: HAPI was seeded with 1*10^4/well in 96-well plate. Twenty-four hours later, it was treated with vehicle, MMT (10 uM), and LPS 100 ng/ml for 48 hrs. After adding MTT, cell viability was measured (FIG. 8A) and morphology (FIG. 8B) was examined by contrast microscope. Values are mean±SEM of three independent experiments. *p<0.05, compared with LPS.

## CC12CC3CC(C)(C1)CC(N)(C3)C2.Cl [MMT, 1-amino-3,5-dimethyladamantane hydrochloride]
[1]; MMT 3 and 10 μM
  effect on LPS-induced reduction in the number of TH-ir neurons: significantly attenuated the LPS-induced reduction in the number of TH-ir neurons
[1]; MMT alone
  growth of neurites (morphological observation): enhanced the growth of neurites
  number of TH-ir (DA) neurons vs vehicle control: increased the survival DA neuron number
[2]; MMT 10 μM, LPS 2.5 ng/ml, post-treatment
  time of MMT addition after LPS still giving significant neuroprotection (DA uptake): up to 120 min
[2]; neuron-enriched cultures
  effect on LPS-induced decrease in DA uptake: not in neuron-enriched cultures
[2]; pretreated 30 min with 1, 3, 10 μM MMT, neuron-glia cultures, dose-dependent
  effect on LPS-induced decrease in DA uptake: significantly attenuated the LPS-induced decrease in DA uptake
[3]; 10% of microglia added back to neuron-enriched cultures
  neurotrophic effect on DA neurons: not microglia-added cultures
[3]; microglia-depleted neuron/glia culture
  neurotrophic effect on DA neurons: neurotrophic in microglia-depleted neuron/glia culture
[3]; neuron-enriched cultures
  neurotrophic effect on DA neurons: failed to show any protective effect
[4]
  effect on apoptosis of activated microglia induced by LPS (MTT cell viability): lack of effect
